Patent US8450308B2 (Vitae Pharmaceuticals, Inc., priority 2008, dated 2013)
Like-named read-outs stand apart in the source and are kept apart here.

Columns and labels:
[1] = biological target: T1, truncated human beta-secretase (residues 1-458, His6-tagged at the C-terminus) (Homo sapiens, UniProt P56817); assay: BACE fluorescence quench assay; assay type: biochemical; conditions: in vitro enzyme activity, BACE fluorescence assay, pH 4.5; read-out: IC50
T1 construct: truncated human beta-secretase (residues 1-458, His6-tagged at the C-terminus); His6 (C); made in house; host or cells: insect cells D. melanogaster S2 (baculovirus expression system (so in the source))

[2] = BACE cell assay: soluble Amyloid Beta 1-40 (Aβ 1-40) in culture media of H4-APPsw cells; assay type: cell-based
[3] = in vitro cell activity, H4-APPsw cells, secreted Aβ 1-40, overnight treatment, read-out: IC50

T1 sequence (P56817 22-458): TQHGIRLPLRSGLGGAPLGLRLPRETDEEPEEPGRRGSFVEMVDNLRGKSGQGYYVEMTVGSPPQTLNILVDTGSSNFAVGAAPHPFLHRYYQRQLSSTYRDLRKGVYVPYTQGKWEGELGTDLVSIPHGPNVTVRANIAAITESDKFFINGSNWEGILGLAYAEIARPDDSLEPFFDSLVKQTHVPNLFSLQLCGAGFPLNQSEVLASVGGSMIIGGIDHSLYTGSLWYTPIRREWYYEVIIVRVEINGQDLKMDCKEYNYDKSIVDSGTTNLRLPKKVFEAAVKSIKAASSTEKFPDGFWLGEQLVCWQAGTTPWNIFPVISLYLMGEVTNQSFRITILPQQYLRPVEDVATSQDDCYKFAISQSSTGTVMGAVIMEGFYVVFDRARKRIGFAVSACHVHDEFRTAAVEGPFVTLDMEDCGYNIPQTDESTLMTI

SMILES	IC50 [1]	IC50 [2, 3]	IC50 [2]
CN1C(=O)[C@@]2(C[C@]3(CCCOC3)Oc3ccc(-c4cc(F)cc(F)c4F)cc32)N=C1N [Compound 280]	100 to 500 nM	100 to 500 nM	–
COc1cc(OC)cc(-c2ccc3c(c2)[C@]2(C[C@]4(CCCOC4)O3)N=C(N)N(C)C2=O)c1 [Compound 283]	100 to 500 nM	100 to 500 nM	–
CN1C(=O)C2(CC3(CCCOC3)Oc3ccc(-c4cc(F)cc(Cl)c4)cc32)N=C1N (centres unmarked) [Compound 286]	100 to 500 nM	100 to 500 nM	–
Cc1ccc(F)cc1-c1ccc2c(c1)[C@]1(C[C@]3(CCCOC3)O2)N=C(N)N(C)C1=O [Compound 287]	100 to 500 nM	100 to 500 nM	–
CN1OC2(CC(C3CCOC(C)(C)C3)Oc3ccc(-c4cccc(Br)c4)cc32)N=C1N (centres unmarked) [Compound 294]	100 to 500 nM	1000 to 5000 nM	–
CN1OC2(C[C@H]([C@H]3CCOC(C)(C)C3)Oc3ccc(-c4cc(F)cc(Cl)c4)cc32)N=C1N (some centres unmarked) [Compound 295]	100 to 500 nM	1000 to 5000 nM	–
CN1OC2(CC(C3CCOC(C)(C)C3)Oc3ccc(-c4cccc(C(F)(F)F)c4)cc32)N=C1N (centres unmarked) [Compound 297]	100 to 500 nM	1000 to 5000 nM	–
CC1CC[C@]2(CO1)C[C@]1(N=C(N)N(C)O1)c1cc(-c3cc(F)cc(Cl)c3)ccc1O2 (some centres unmarked) [Compound 298]	100 to 500 nM	1000 to 5000 nM	–
CN1OC2(C[C@H]([C@@H]3CCOC(C)(C)C3)Oc3ccc(-c4cc(F)cc(Cl)c4)cc32)N=C1N (some centres unmarked) [Compound 299]	100 to 500 nM	1000 to 5000 nM	–
CC1CC[C@]2(CO1)C[C@]1(N=C(N)N(C)O1)c1cc(-c3cccc(Cl)c3)ccc1O2 (some centres unmarked) [Compound 303]	100 to 500 nM	1000 to 5000 nM	–
CN1OC2(C[C@H]([C@@H]3CCOC(C)(C)C3)Oc3ccc(-c4cccc(C#N)c4F)cc32)N=C1N (some centres unmarked) [Compound 306]	100 to 500 nM	1000 to 5000 nM	–
CN1OC2(CC3(CCCc4ccccc4C3)Oc3ccc(C#CC(C)(C)C)cc32)N=C1N (centres unmarked) [Compound 308]	100 to 500 nM	1000 to 5000 nM	–
CN1C(=O)C2(CC3(CCCOC3)Oc3ccc(-c4cc(F)cc(F)c4)cc32)N=C1N (centres unmarked) [Compound 314]	100 to 500 nM	500 to 1000 nM	–
CN1OC2(CC3(CCCc4ccccc4C3)Oc3ccc(C#CC4CCCC4)cc32)N=C1N (centres unmarked) [Compound 317]	100 to 500 nM	1000 to 5000 nM	–
CC1CC[C@]2(CO1)C[C@]1(N=C(N)N(C)O1)c1cc(-c3ccc(F)c(Cl)c3)ccc1O2 (some centres unmarked) [Compound 330]	100 to 500 nM	1000 to 5000 nM	–
COc1cc(OC)cc(-c2ccc3c(c2)[C@]2(C[C@@]4(CCCOC4)O3)N=C(N)N(C)C2=O)c1 [Compound 333]	100 to 500 nM	1000 to 5000 nM	–
CN1O[C@]2(C[C@@H]([C@H]3CCCOC3)Oc3ccc(-c4cc(F)cc(F)c4)cc32)N=C1N [Compound 348]	500 to 1000 nM	5000 to 10000 nM	–
CN1OC2(CC3(CCCc4ccccc4C3)Oc3ccc(Br)cc32)N=C1N (centres unmarked) [Compound 349]	500 to 1000 nM	1000 to 5000 nM	–
COc1cccc2c1CCCC1(C2)CC2(N=C(N)N(C)O2)c2cc(Br)ccc2O1 (centres unmarked) [Compound 373]	500 to 1000 nM	5000 to 10000 nM	–
CN1OC2(CC3(CCCc4ccccc43)Oc3ccc(-c4cc(F)cc(F)c4)cc32)N=C1N (centres unmarked) [Compound 402]	1000 to 5000 nM	–	10000 to 50000 nM
Cc1cc2c(cc1-c1cccc(C#N)c1)C1(CC3(CCCOC3)O2)N=C(N)N(C)O1 (centres unmarked) [Compound 432, 3-(3″-amino-2″,7-dimethyl-2″H-spiro[spiro[chroman-2,1′-(3-oxacyclohexane)]-4,5′-[1,2,4]oxadiazole]-6-yl)benzonitrile]	5000 to 10000 nM	10000 to 50000 nM	–

Second part, led by results:

IC50 [1]	IC50 [2, 3]	SMILES	IC50 [2]
100 to 500 nM	5000 to 10000 nM	CN1C(=O)C2(CC([C@H]3CCCc4ccccc43)Oc3ccc(-c4cccc(C#N)c4)cc32)N=C1N (stereo in doubt) [Compound 335, 3-(2′-amino-1′-methyl-5′-oxo-2-(1,2,3,4-tetrahydronaphthalen-1-yl)-1′,5′-dihydrospiro[chroman-4,4′-imidazole]-6-yl)benzonitrile]	–
100 to 500 nM	1000 to 5000 nM	CN1O[C@@]2(C[C@@H](C3CCOc4ccccc43)Oc3ccc(-c4cccc(C#N)c4)cc32)N=C1N (some centres unmarked) [Compound 279]	–
100 to 500 nM	100 to 500 nM	CN1C(=O)C2(CC3(CCCOC3)Oc3ccc(-c4cc(C#N)ccc4F)cc32)N=C1N (centres unmarked) [Compound 288]	–
100 to 500 nM	500 to 1000 nM	CN1C(=O)C2(CC3(CCCOC3)Oc3ccc(-c4cccc(Cl)c4)cc32)N=C1N (centres unmarked) [Compound 290]	–
100 to 500 nM	1000 to 5000 nM	CN1O[C@]2(C[C@H]([C@H]3CCOC(C)(C)C3)Oc3ccc(-c4cccc(C#N)c4)cc32)N=C1N [Compound 293]	–
100 to 500 nM	5000 to 10000 nM	CN1OC2(C[C@@H](C34CCC(CC3)OC4)Oc3ccc(-c4cccc(C#N)c4)cc32)N=C1N (some centres unmarked) [Compound 305]	–
100 to 500 nM	500 to 1000 nM	COc1ccc2c(c1)CCC[C@@]1(C2)C[C@@]2(N=C(N)N(C)O2)c2cc(-c3cccc(C#N)c3)ccc2O1 [Compound 311]	–
100 to 500 nM	1000 to 5000 nM	CN1OC2(CC3(CCC(c4ccccc4)CC3)Oc3ccc(-c4cccc(C#N)c4)cc32)N=C1N (centres unmarked) [Compound 313]	–
100 to 500 nM	1000 to 5000 nM	CN1OC2(CC3(CCCc4ncccc43)Oc3ccc(-c4cccc(C#N)c4)cc32)N=C1N (centres unmarked) [Compound 320]	–
100 to 500 nM	5000 to 10000 nM	CN1OC2(CC3(CCc4ccccc4C3)Oc3ccc(-c4cccc(C#N)c4)cc32)N=C1N (centres unmarked) [Compound 324]	–
100 to 500 nM	5000 to 10000 nM	CN1O[C@@]2(C[C@H](C3CCOc4ccccc43)Oc3ccc(-c4cccc(C#N)c4)cc32)N=C1N (some centres unmarked) [Compound 331]	–
100 to 500 nM	1000 to 5000 nM	CN1C(=O)C2(CC3(CCCOC3)Oc3ccc(-c4cccc(C(F)(F)F)c4)cc32)N=C1N (centres unmarked) [Compound 338]	–
100 to 500 nM	5000 to 10000 nM	CN1OC2(C[C@H](C34CCC(CC3)OC4)Oc3ccc(-c4cccc(C#N)c4)cc32)N=C1N (some centres unmarked) [Compound 345]	–
500 to 1000 nM	1000 to 5000 nM	CN1OC2(CC3(CCCc4ccccc4C3)Oc3ccc(-c4ccc5cc[nH]c5c4)cc32)N=C1N (centres unmarked) [Compound 352]	–
500 to 1000 nM	10000 to 50000 nM	CN1OC2(CC3(CCN(c4ncccn4)CC3)Oc3ccc(-c4cccc(C#N)c4)cc32)N=C1N (centres unmarked) [Compound 353]	–
500 to 1000 nM	5000 to 10000 nM	CN1OC2(CC3(CCCN(c4ccccc4)C3)Oc3ccc(-c4cccc(C#N)c4)cc32)N=C1N (centres unmarked) [Compound 355]	–
